Data: paper PMC6166661 (Neuropeptides, 2018)

Experiments:
[1] = tested on: isoproterenol-stimulated lipolysis; experiment: Acute effect on isoproterenol-stimulated lipolysis; format: in vivo, rat; conditions: rats
C3aR1 = conditions: ref Cianflone et al., 2003; Murray et al., 2000; cited from earlier work

Compound | change of plasma palmitate concentration during infusion ([1]; constant i.v. infusion 30 ng•min^−1, vs basal) | plasma palmitate concentration at end of experiment, of the initial value ([1]; isoproterenol infusion plus saline bolus (control group)) | activity at C3aR1 (C3aR1)
CC(C)NCC(O)c1ccc(O)c(O)c1 (stereo not drawn) [isoproterenol] | more than doubled | ~ 75% | 
ASP: des-arginine peptide generated from C3a by cleaving the C-terminal arginine residue (R77) |  |  | inactive
